This assay has as its target BACE1 (Homo sapiens, UniProt P56817). As to the kind of experiment: BACE1 FRET assay. The class given is biochemical.

The pIC50 is −log10 of the IC50, conventionally taken in molar units.

The structures appear in SMILES notation. pIC50: −log10 of the molar value.

BACE1, sequence (P56817 46-501): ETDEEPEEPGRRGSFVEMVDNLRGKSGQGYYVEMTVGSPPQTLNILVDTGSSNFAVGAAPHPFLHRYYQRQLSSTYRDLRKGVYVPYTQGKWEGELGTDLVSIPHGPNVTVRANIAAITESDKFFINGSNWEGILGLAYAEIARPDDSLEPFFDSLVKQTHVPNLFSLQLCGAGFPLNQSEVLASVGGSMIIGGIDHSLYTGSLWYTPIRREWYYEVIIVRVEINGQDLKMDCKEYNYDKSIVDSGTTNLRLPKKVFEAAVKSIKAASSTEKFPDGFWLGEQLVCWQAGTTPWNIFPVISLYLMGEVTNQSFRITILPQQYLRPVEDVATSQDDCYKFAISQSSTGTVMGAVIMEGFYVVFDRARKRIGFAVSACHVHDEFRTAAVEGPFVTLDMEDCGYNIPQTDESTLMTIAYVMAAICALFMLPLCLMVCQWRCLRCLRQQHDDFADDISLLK

Compound `COc1cc(OC)c2c(O)c3c(=O)cc(C)oc3c(-c3c(OC)cc4cc(O)c5c(=O)cc(C)oc5c4c3OC)c2c1` [Compound 4, fonsecinone A] gave a pIC50 of 4.83. In the case of `COc1cc(OC)c2c(O)c3c(=O)cc(C)oc3c(-c3c(O)cc4cc(O)c5c(=O)cc(C)oc5c4c3OC)c2c1` [Compound 7, asperpyrone A], the pIC50 is 4.44.

The values above are taken from paper PMC10088752 (Journal of Natural Medicines, 2023).
